From US20080207521A1, “PEPTIDE LIGAND TO IMPAIR CANCER CELL MIGRATION” (priority 2005, published 2008) come the findings set out here.

The subject of one test is DDR1. The test can be described thus: DDR1 phosphorylation in MDA-MB-468 cells (immunoprecipitation/Western blot). The class given is cell-based, human. The settings on record: PP1 10 μM for 30 min. As to the method:
The phosphorylation status of DDR1 was analyzed as previously described (12), with the following modifications. After serum-depletion for 16 h, the cells were detached with Versene and then allowed to adhere to collagen I for 60 (MDA-MB-468) or 90 min (HB2) at 37° C. The experiments were terminated by lysing both adherent and non-adherent cells with a lysis buffer (50 mM Tris pH 7.4, 1% Triton-X, 5 mM EDTA, 5 mM EGTA, 50 mM NaCl, 10 μg/ml aprotinin, 2.5 mM benzamidine, 1 mM pefabloc, 1 μg/ml leupeptin and 1 mM Na3VO4). For immunoblotting an anti-DDR1 rabbit polyclonal Ab, sc-532 (Santa Cruz Biotech, Santa Cruz, Calif.) was used at a dilution of 1:10,000. The Ab recognizes DDR1b/c, which is essential because collagen only induces phosphorylation of the b or c isoforms of DDR1 in mammary epithelial cells (10).
Peptide-induced effects on adhesion and DDR1 phosphorylation in MDA-MB-468 breast cancer cells. (A) Western blot analysis of Wnt-5a protein expression in Wnt-5a antisense and Wnt-5a over-expressing HB2 cells in comparison to MDA-MB-468 tumour cells. […] The amounts of adhesive cells were analyzed as described in the methods and the results are given as means±SEM of 8 separate experiments. […] The amount of adherent cells was estimated as in panel A and expressed as means±SEM of 6 separate experiments, ns=not significant, ** p<0.01 and *** p<0.001. […]
On the technique in general: In western blotting, separated proteins are transferred to a membrane and probed.

The target in the next test is T1, Src kinase (Homo sapiens, UniProt P12931).
T1 construct: Src activity in MDA-MB-468 cells in the absence and presence of PP1 and/or serum; endogenous in cells; host or cells: MDA-MB-468
T1 sequence (P12931 whole entry): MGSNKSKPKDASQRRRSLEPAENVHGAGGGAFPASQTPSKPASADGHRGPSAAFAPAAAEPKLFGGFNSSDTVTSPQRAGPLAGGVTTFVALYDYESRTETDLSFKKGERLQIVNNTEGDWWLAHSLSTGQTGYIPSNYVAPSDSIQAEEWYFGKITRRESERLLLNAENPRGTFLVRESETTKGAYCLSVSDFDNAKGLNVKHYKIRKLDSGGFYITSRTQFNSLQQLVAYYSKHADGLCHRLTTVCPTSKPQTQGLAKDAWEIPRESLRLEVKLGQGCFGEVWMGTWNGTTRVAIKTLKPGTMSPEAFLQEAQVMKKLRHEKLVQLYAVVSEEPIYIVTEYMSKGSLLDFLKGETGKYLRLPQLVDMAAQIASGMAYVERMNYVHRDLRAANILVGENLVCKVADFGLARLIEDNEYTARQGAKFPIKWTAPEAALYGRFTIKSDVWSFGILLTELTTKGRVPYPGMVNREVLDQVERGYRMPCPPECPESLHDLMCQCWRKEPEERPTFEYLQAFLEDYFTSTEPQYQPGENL
Kind of test: Src activity in MDA-MB-468 cells (Western blot). It is filed as cell-based. The settings on record: PP1 10 μM for last 30 min; with or without serum. How it is done: Western blot analysis was performed to evaluate the protein expressions of Wnt-5a, EGF-receptor, Src and Frz-2 and 5 in HB2 and MDA-MB-468 cells. […] The Wnt-5a Ab has been produced in the laboratory, as previously described (9, 10). The cells were lysed and boiled in two times concentrated Laemmli buffer. The protein content was determined in each sample and adjusted to ensure loading of equal amounts of protein in each lane, 50 mM DTT was then added and the lysates were boiled for 10 min, before separation by SDS gel electrophoresis. The proteins were subsequently transferred to PVDF membranes. The membranes were blocked in 3% BSA or 5% non-fat milk for 45 min, incubated with the primary Ab for 1 h (1:2,000 for Wnt-5a, 1:1,000 for activated EGF-receptor, total EGF-receptor, actin, active Src and total Src, and 1:5,000 for Frz-2 and Frz-5), and then for 1 h with a horseradish peroxidase conjugated secondary Ab. The Ab-antigen complex was detected using an enhanced chemiluminescence detection kit from Amersham Pharmacia Biotech (Uppsala, Sweden). In the case of re-probing, the membranes were stripped with a Reblot Strong solution from Chemicon International (Temecula, Calif.).
(A) Effect of pre-treatment (30 min) with the Src-inhibitor PP1 (10 μM) on adhesion induced DDR1 phosphorylation in MDA-MB-468 cells. The blots shown are representative of 3 separate experiments. […]

As to `Cc1ccc(-c2nn(C(C)(C)C)c3ncnc(N)c23)cc1` [PP1, 4-amino-5-(4-methyl-phenyl)-7-(t-butyl)pyrozolo-D-3,4-pyrimidine, reference compound], in the test with DDR1, the “basal phosphorylation of DDR1” value is on record as “abolished the basal phosphorylation of DDR1”. Further, the Src kinase activity entry at Src kinase is given as “abolished”.
